We go through 24 compounds from patent publication US10927123B2, “Modulators of the beta-3 adrenergic receptor useful for the treatment or prevention of disorders related thereto” (Arena Pharmaceuticals, Inc., priority 2016, dated 2021).

The target of the experiment is Beta-3 Adrenergic Receptor (Homo sapiens (Human), UniProt P13945). Put plainly: HTRF cAMP antagonist assay (IC50 determination). The following applies: CHO-K1 cells stably expressing recombinant receptor; antagonism of isoproterenol at EC90; cAMP readout. It counts as cell-based. The essentials: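 In this functional readout, recombinant CHO-K1 cells received compound, then isoproterenol at its EC90. After 1 h at room temperature, cAMP levels were determined by HTRF using an on-plate standard curve, and IC50 values were fitted.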
Chain of Beta-3 Adrenergic Receptor (P13945 whole entry, species assumed): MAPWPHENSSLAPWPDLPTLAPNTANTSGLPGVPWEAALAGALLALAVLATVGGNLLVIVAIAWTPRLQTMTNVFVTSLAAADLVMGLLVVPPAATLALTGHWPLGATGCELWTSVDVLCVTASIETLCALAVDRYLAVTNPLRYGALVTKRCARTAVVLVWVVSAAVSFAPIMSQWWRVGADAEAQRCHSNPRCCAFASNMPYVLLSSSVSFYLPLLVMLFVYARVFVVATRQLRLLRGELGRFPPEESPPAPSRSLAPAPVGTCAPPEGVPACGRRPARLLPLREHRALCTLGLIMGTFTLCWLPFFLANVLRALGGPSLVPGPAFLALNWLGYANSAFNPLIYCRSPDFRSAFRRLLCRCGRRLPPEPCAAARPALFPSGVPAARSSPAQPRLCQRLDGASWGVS
On the technique in general: Time-resolved FRET reads energy transfer from a long-lived donor to a nearby acceptor.

By IC50 is commonly meant the point on the concentration scale where inhibition reaches its midpoint. `CCOc1ccc(-c2ccc(C(C)(C)N)cc2)cc1S(=O)(=O)N1CCC2(CC1)CC(NC[C@H](O)COc1cccc(S(=O)(=O)C3(CO)CC3)c1)CO2` (stereo partly drawn) [Compound 251]: the IC50 was found to be 0.0516 µM.
With `CN1CCOc2cc(C(=O)N3CCC4(CC3)CC(NC[C@H](O)COc3cccc(S(C)(=O)=O)c3)CO4)ccc21` (stereo partly drawn) [Compound 64, (3-((S)-2-hydroxy-3-(3-(methylsulfonyl)phenoxy)propylamino)-1-oxa-8-azaspiro[4.5]decan-8-yl)(4-methyl-3,4-dihydro-2H-benzo[6][1,4]oxazin-7-yl)methanone] the figure was 0.922 µM; with `CCn1cc(S(=O)(=O)N2CCC3(CC2)C[C@@H](NC[C@H](O)COc2cccc(S(=O)(=O)COC)c2)CO3)c(=O)c2ccccc21` [Compound 306, 1-ethyl-3-((R)-3-((S)-2-hydroxy-3-(3-(methoxymethylsulfonyl)phenoxy)propylamino)-1-oxa-8-azaspiro[4.5]decan-8-ylsulfonyl)quinolin-4(1H)-one], 0.0629 µM.
With `CCn1cc(-c2cccc(S(=O)(=O)N3CCC4(CC3)CC(NC[C@H](O)COc3cccc(S(C)(=O)=O)c3)CO4)c2)cn1` (stereo partly drawn) [Compound 36, (2S)-1-(8-(3-(1-ethyl-1H-pyrazol-4-yl)phenylsulfonyl)-1-oxa-8-azaspiro[4.5]decan-3-ylamino)-3-(3-(methylsulfonyl)phenoxy)propan-2-ol] the figure was 0.0215 µM; with `CS(=O)(=O)c1cccc(OC[C@@H](O)CNC2COC3(CCN(S(=O)(=O)c4cccc(-c5ccc(S(N)(=O)=O)cc5)c4)CC3)C2)c1` (stereo partly drawn) [Compound 42, 3′-(3-((S)-2-hydroxy-3-(3-(methylsulfonyl)phenoxy)propylamino)-1-oxa-8-azaspiro[4.5]decan-8-ylsulfonyl)biphenyl-4-sulfonamide], 0.0187 µM.
With `CS(=O)(=O)c1cccc(OC[C@@H](O)CNC2COC3(CCN(S(=O)(=O)c4cccc(F)c4)CC3)C2)c1` (stereo partly drawn) [Compound 54, (2S)-1-(8-(3-fluorophenylsulfonyl)-1-oxa-8-azaspiro[4.5]decan-3-ylamino)-3-(3-(methylsulfonyl)phenoxy)propan-2-ol] the figure was 0.0459 µM; with `CC(C)(C(N)=O)S(=O)(=O)c1cccc(OC[C@@H](O)CN[C@H]2COC3(CCN(S(=O)(=O)c4cnc5ccccc5c4)CC3)C2)c1` [Compound 108, 2-(3-((S)-2-hydroxy-3-((R)-8-(quinolin-3-ylsulfonyl)-1-oxa-8-azaspiro[4.5]decan-3-ylamino)propoxy)phenylsulfonyl)-2-methylpropanamide], 0.325 µM; with `CN1CCOc2ncc(S(=O)(=O)N3CCC4(CC3)C[C@@H](NC[C@H](O)COc3cccc(S(=O)(=O)C5(CO)CC5)c3)CO4)cc21` [Compound 155, (S)-1-(3-(1-(hydroxymethyl)cyclopropylsulfonyl)phenoxy)-3-((R)-8-(1-methyl-2,3-dihydro-1H-pyrido[2,3-b][1,4]oxazin-7-ylsulfonyl)-1-oxa-8-azaspiro[4.5]decan-3-ylamino)propan-2-ol], 0.0482 µM.
Take `O=S(=O)(CC1CCCCC1)c1cccc(OC[C@@H](O)CNC2COC3(CCN(S(=O)(=O)c4ccc5ccccc5c4)CC3)C2)c1` (stereo partly drawn) [Compound 16, (2S)-1-(3-(cyclohexylmethylsulfonyl)phenoxy)-3-(8-(naphthalen-2-ylsulfonyl)-1-oxa-8-azaspiro[4.5]decan-3-ylamino)propan-2-ol]: the IC50 came to 0.133 µM.
With `CCNCc1ccc(-c2cccc(S(=O)(=O)N3CCC4(CC3)CC(NC[C@H](O)COc3cccc(S(C)(=O)=O)c3)CO4)c2)cc1` (stereo partly drawn) [Compound 79, (2S)-1-(8-(4′-((ethylamino)methyl)biphenyl-3-ylsulfonyl)-1-oxa-8-azaspiro[4.5]decan-3-ylamino)-3-(3-(methylsulfonyl)phenoxy)propan-2-ol] the figure was 0.0422 µM; with `O=C1NCc2ncc(S(=O)(=O)N3CCC4(CC3)C[C@@H](NC[C@H](O)COc3cccc(S(=O)(=O)C5CC5)c3)CO4)cc21` [Compound 280, 3-((R)-3-((S)-3-(3-(cyclopropylsulfonyl)phenoxy)-2-hydroxypropylamino)-1-oxa-8-azaspiro[4.5]decan-8-ylsulfonyl)-6,7-dihydro-5H-pyrrolo[3,4-b]pyridin-5-one], 0.0964 µM.
In the case of `C[C@@H]1CN(C)c2cc(S(=O)(=O)N3CCC4(CC3)C[C@@H](NC[C@H](O)COc3cccc(S(=O)(=O)C5(CO)CC5)c3)CO4)cnc2O1` [Compound 283, (S)-1-((R)-8-((R)-1,3-dimethyl-2,3-dihydro-1H-pyrido[2,3-b][1,4]oxazin-7-ylsulfonyl)-1-oxa-8-azaspiro[4.5]decan-3-ylamino)-3-(3-(1-(hydroxymethyl)cyclopropylsulfonyl)phenoxy)propan-2-ol], the IC50 came out at 0.0689 µM.
With `NCc1ccc(-c2cccc(S(=O)(=O)N3CCC4(CC3)C[C@@H](NC[C@H](O)COc3cccc(S(=O)(=O)CCO)c3)CO4)c2)cc1` [Compound 91, (S)-1-((R)-8-(4′-(aminomethyl)biphenyl-3-ylsulfonyl)-1-oxa-8-azaspiro[4.5]decan-3-ylamino)-3-(3-(2-hydroxyethylsulfonyl)phenoxy)propan-2-ol] the figure was 0.0371 µM; with `Cn1cc(-c2cccc(S(=O)(=O)N3CCC4(CC3)CC(NC[C@H](O)COc3cccc(S(C)(=O)=O)c3)CO4)c2)cn1` (stereo partly drawn) [Compound 40, (2S)-1-(8-(3-(1-methyl-1H-pyrazol-4-yl)phenylsulfonyl)-1-oxa-8-azaspiro[4.5]decan-3-ylamino)-3-(3-(methylsulfonyl)phenoxy)propan-2-ol], 0.0203 µM.
In the case of `CN1CCOc2ncc(S(=O)(=O)N3CCC4(CC3)C[C@@H](NC[C@H](O)COc3cccc(S(=O)(=O)CCCO)c3)CO4)cc21` [Compound 150, 3-(3-((S)-2-hydroxy-3-((R)-8-(1-methyl-2,3-dihydro-1H-pyrido[2,3-b][1,4]oxazin-7-ylsulfonyl)-1-oxa-8-azaspiro[4.5]decan-3-ylamino)propoxy)phenylsulfonyl)propan-1-ol] it was 0.227 µM.
For the compound `NCCc1ccc(-c2cccc(S(=O)(=O)N3CCC4(CC3)C[C@H](NC[C@H](O)COc3cccc(S(=O)(=O)C(F)(F)CO)c3)CO4)c2)cc1` [Compound 210, (S)-1-((S)-8-(4′-(2-aminoethyl)biphenyl-3-ylsulfonyl)-1-oxa-8-azaspiro[4.5]decan-3-ylamino)-3-(3-(1,1-difluoro-2-hydroxyethylsulfonyl)phenoxy)propan-2-ol], the IC50 came out at 0.0224 µM.
As for `O=S(=O)(c1cccc(OC[C@@H](O)CN[C@H]2COC3(CCN(S(=O)(=O)c4cnc5ccccc5c4)CC3)C2)c1)C1CC1` [Compound 144, (S)-1-(3-(cyclopropylsulfonyl)phenoxy)-3-((R)-8-(quinolin-3-ylsulfonyl)-1-oxa-8-azaspiro[4.5]decan-3-ylamino)propan-2-ol], the IC50 came out at 0.00777 µM.
In the case of `CS(=O)(=O)c1cccc(OC[C@@H](O)CNC2COC3(CCN(C(=O)c4ccc5cc[nH]c5c4)CC3)C2)c1` (stereo partly drawn) [Compound 68, (3-((S)-2-hydroxy-3-(3-(methylsulfonyl)phenoxy)propylamino)-1-oxa-8-azaspiro[4.5]decan-8-yl)(1H-indol-6-yl)methanone] it was 0.494 µM; in that of `NCCNCc1ccc(-c2cccc(S(=O)(=O)N3CCC4(CC3)C[C@@H](NC[C@H](O)COc3cccc(S(=O)(=O)C5(CO)CC5)c3)CO4)c2)cc1` [Compound 270, (S)-1-((R)-8-(4′-((2-aminoethylamino)methyl)biphenyl-3-ylsulfonyl)-1-oxa-8-azaspiro[4.5]decan-3-ylamino)-3-(3-(1-(hydroxymethyl)cyclopropylsulfonyl)phenoxy)propan-2-ol], 0.0923 µM.
As for `O=S(=O)(c1cccc(-c2ccc(CN3CCC3)cc2)c1)N1CCC2(CC1)C[C@@H](NC[C@H](O)COc1cccc(S(=O)(=O)C3(CO)CC3)c1)CO2` [Compound 265, (S)-1-((R)-8-(4′-(azetidin-1-ylmethyl)biphenyl-3-ylsulfonyl)-1-oxa-8-azaspiro[4.5]decan-3-ylamino)-3-(3-(1-(hydroxymethyl)cyclopropylsulfonyl)phenoxy)propan-2-ol], the IC50 is 0.374 µM.
With `NC1(c2ccc(-c3cc(S(=O)(=O)N4CCC5(CC4)C[C@H](NC[C@H](O)COc4cccc(S(=O)(=O)C6(CO)CC6)c4)CO5)ccc3F)cc2)CC1` [Compound 219, (S)-1-((S)-8-(4′-(1-aminocyclopropyl)-6-fluorobiphenyl-3-ylsulfonyl)-1-oxa-8-azaspiro[4.5]decan-3-ylamino)-3-(3-(1-(hydroxymethyl)cyclopropylsulfonyl)phenoxy)propan-2-ol] the figure was 0.0216 µM; with `O=S(=O)(c1cnc2cccn2c1)N1CCC2(CC1)C[C@@H](NC[C@H](O)COc1cccc(S(=O)(=O)C3(CO)CC3)c1)CO2` [Compound 302, (S)-1-(3-(1-(hydroxymethyl)cyclopropylsulfonyl)phenoxy)-3-((R)-8-(pyrrolo[1,2-a]pyrimidin-3-ylsulfonyl)-1-oxa-8-azaspiro[4.5]decan-3-ylamino)propan-2-ol], 0.696 µM; with `CS(=O)(=O)c1cccc(OC[C@@H](O)CNC2COC3(CCN(S(=O)(=O)c4ccc5c(c4)CCO5)CC3)C2)c1` (stereo partly drawn) [Compound 74, (2S)-1-(8-(2,3-dihydrobenzofuran-5-ylsulfonyl)-1-oxa-8-azaspiro[4.5]decan-3-ylamino)-3-(3-(methylsulfonyl)phenoxy)propan-2-ol], 0.038 µM.
In the case of `CN1CCOc2ccc(S(=O)(=O)N3CCC4(CC3)C[C@@H](NC[C@H](O)COc3cccc(S(=O)(=O)CCO)c3)CO4)cc21` [Compound 84, (S)-1-(3-(2-hydroxyethylsulfonyl)phenoxy)-3-((R)-8-(4-methyl-3,4-dihydro-2H-benzo[6][1,4]oxazin-6-ylsulfonyl)-1-oxa-8-azaspiro[4.5]decan-3-ylamino)propan-2-ol] it was 0.0547 µM.
